In ChEMBL document CHEMBL5625263, “Discovery of a novel series of selective macrocyclic PKCTheta inhibitors” (Bioorg Med Chem Lett, 2024):
≈ marks a conversion by molar mass, not a printed value.

Experiments:
[1] = biological target: T1, Protein kinase C theta type (Homo sapiens, UniProt Q04759); assay: Inhibition of PKC theta (unknown origin) in presence of ATP at Km
[2] = biological target: T1, Protein kinase C theta type; assay: Inhibition of PKC theta (unknown origin) in presence of 1 mM ATP
[3] = biological target: T2, Protein kinase C alpha type (Homo sapiens, UniProt P17252); assay: Inhibition of PKC alpha (unknown origin) in presence of ATP at Km
[4] = biological target: T2, Protein kinase C alpha type; assay: Inhibition of PKC alpha (unknown origin) in presence of 1 mM ATP
[5] = biological target: T1, Protein kinase C theta type; assay: Inhibition of PKC theta in TCR-stimulated human PBMC assessed as inhibition of IL-2 release; format: cell-based
[6] = Solubility of the compound; format: physicochemical
[7] = Apparent permeability of a compound in human Caco-2 cells; format: ADME, cell-based
[8] = Efflux ratio of apparent permeability across basolateral to apical side over apical to basolateral side in human Caco-2 cells; format: ADME, cell-based
[9] = Oral bioavailability in rat; format: ADME, organism-based; details: in vivo
[10] = Half life in rat; format: ADME; details: in vivo
[11] = Clearance in rat; format: ADME; details: in vivo
[12] = Selectivity ratio of inhibition of PKCdelta (unknown origin) to inhibition of PKC theta (unknown origin) at 1 mM ATP concentration
[13] = Selectivity ratio of inhibition of PKCeta (unknown origin) to inhibition of PKC theta (unknown origin) at 1 mM ATP concentration
[14] = Selectivity ratio of inhibition of PKCbeta1 (unknown origin) to inhibition of PKC theta (unknown origin) at 1 mM ATP concentration
[15] = Selectivity ratio of inhibition of AURB (unknown origin) to inhibition of PKC theta (unknown origin) at 1 mM ATP concentration
[16] = Selectivity ratio of inhibition of HGK (unknown origin) to inhibition of PKC theta (unknown origin) at 1 mM ATP concentration
[17] = Selectivity ratio of inhibition of GSK3beta (unknown origin) to inhibition of PKC theta (unknown origin) at 1 mM ATP concentration
[18] = Selectivity ratio of inhibition of PKACalpha (unknown origin) to inhibition of PKC theta (unknown origin) at 1 mM ATP concentration
[19] = Selectivity ratio of inhibition of MSK1 (unknown origin) to inhibition of PKC theta (unknown origin) at 1 mM ATP concentration
[20] = Selectivity ratio of inhibition of RSK3 (unknown origin) to inhibition of PKC theta (unknown origin) at 1 mM ATP concentration
[21] = Selectivity ratio of inhibition of PI3K-C2beta (unknown origin) to inhibition of PKC theta (unknown origin) at 1 mM ATP concentration
[22] = Selectivity ratio of inhibition of CLK1 (unknown origin) to inhibition of PKC theta (unknown origin) at 1 mM ATP concentration
[23] = Selectivity ratio of inhibition of FLT3 (unknown origin) to inhibition of PKC theta (unknown origin) at 1 mM ATP concentration
[24] = Selectivity ratio of inhibition of TRKA (unknown origin) to inhibition of PKC theta (unknown origin) at 1 mM ATP concentration
[25] = Metabolic stability in human hepatocytes assessed as intrinsic clearance measured per 10^6 cells; format: ADME, cell-based, Hepatocyte; details: read-out: CLH
[26] = Volume of distribution at steady state in rat; format: ADME; details: in vivo, read-out: Vdss

T1 sequence (Q04759 whole entry): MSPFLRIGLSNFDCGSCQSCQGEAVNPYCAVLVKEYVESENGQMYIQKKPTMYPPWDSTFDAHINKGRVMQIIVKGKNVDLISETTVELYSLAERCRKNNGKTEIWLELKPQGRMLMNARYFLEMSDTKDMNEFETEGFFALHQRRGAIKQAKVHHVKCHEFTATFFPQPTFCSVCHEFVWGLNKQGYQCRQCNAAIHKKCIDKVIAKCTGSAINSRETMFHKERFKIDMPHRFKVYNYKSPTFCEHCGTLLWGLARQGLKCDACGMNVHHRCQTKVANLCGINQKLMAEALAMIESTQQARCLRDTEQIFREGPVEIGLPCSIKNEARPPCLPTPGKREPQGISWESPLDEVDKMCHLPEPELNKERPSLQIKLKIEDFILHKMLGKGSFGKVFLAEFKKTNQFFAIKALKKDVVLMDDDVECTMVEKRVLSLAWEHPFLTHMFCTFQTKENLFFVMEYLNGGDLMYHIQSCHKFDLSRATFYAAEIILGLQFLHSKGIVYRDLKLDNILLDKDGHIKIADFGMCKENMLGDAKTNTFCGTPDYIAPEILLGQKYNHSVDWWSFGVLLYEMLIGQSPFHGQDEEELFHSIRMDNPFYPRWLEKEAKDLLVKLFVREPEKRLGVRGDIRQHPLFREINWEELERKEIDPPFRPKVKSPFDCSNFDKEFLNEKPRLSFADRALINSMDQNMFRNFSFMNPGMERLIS

IC50 [1] [nM] | IC50 [2] [nM] | IC50 [3] [nM] | IC50 [4] [nM] | IC50 [5] [nM] | solubility [6] [µM] | Papp [7] [×10⁻⁶ cm/s] | efflux ratio [8] | bioavailability [9] [%] | clearance [11] [mL/min/kg] | Selectivity ratio [12] | Selectivity ratio [13] | Selectivity ratio [14] | Selectivity ratio [15] | Selectivity ratio [16] | Selectivity ratio [17] | Selectivity ratio [18] | Selectivity ratio [19] | Selectivity ratio [20] | Selectivity ratio [21] | SMILES | further results
0.9 | 12 | 770 | 6500 | 29 | 300 (≈ 107 µg/mL) | 3.9 | 8 | 53 | 19.6 | 38 | 43 | 147 | 763 | 51 | 66 | 501 | 322 | 311 | 133 | CC1CCCOc2nc(ccc2C(N)=O)-n2c(=O)[nH]c3nccc(c32)O1 (centres undefined) | half-life [10]: 2.2 h; Selectivity ratio [22]: 66; Selectivity ratio [23]: 21; Selectivity ratio [24]: 491
2 | 27 | 820 | 6000 | 58 | 95 (≈ 29.7 µg/mL) | 32 | 0.6 | 50 | 12 | 99 | 43 | 188 | > 370 | 40 | > 370 | > 370 | 142 | > 370 | > 370 | CC1CC(C)Oc2ccnc3[nH]c(=O)n(c23)-c2cccc(n2)O1 (centres undefined) | hepatocyte CLint [25]: < 4 µL/min/1e6 cells; Vd [26]: 1.8 L/kg; Selectivity ratio [22]: > 370; Selectivity ratio [23]: 78; Selectivity ratio [24]: > 370
